Twelve compounds from US5026703A, “Peptide oxytocin antagonists” (priority 1990, dated 1991) can be followed below.

Read-outs that look alike come from different tables or passages of the source. *1 amine or outer side, *2 acyl side, *3 side chain or, on linkers, in order; H or OH if unused. Where a SMILES comes first, the peptide text is derived from it. [ ]: non-standard residue; d: D form. X12 = C=CCSC(=N[C@H](C(=O)[*:2])[C@@H](C)CC)[C@@H](Cc1ccccc1)N[*:1]; X13 = CC[C@H](C)[C@H](NC(=S)[C@@H](Cc1ccccc1)N[*:1])C(=O)[*:2]; X11 = CC(C)(C)OC(=O)CSC1=NN([*:1])[C@H](C(=O)[*:2])CC1; X10 = O=C1CC[C@@H](C(=O)[*:2])N([*:1])N1; Piz(1,6-dehydro) = O=C(O)[C@@H]1CCC=NN1; X7 = CSC1=NN([*:1])[C@H](C(=O)[*:2])CC1; dPiz(1,6-dehydro) = O=C(O)[C@H]1CCC=NN1; X16 = CN1CCC[C@@H](C(=O)[*:2])N1[*:1]; X15 = CN1CCC[C@H](C(=O)[*:2])N1[*:1]; X9 = O=C([C@@H]1C=CC=NN1[*:1])[*:2]; dNMeCha = CN[C@H](CC1CCCCC1)C(=O)O; X5 = O=C([C@@H]1CCCNN1[*:1])[*:2]; X1 = O=C([C@H]1CCCNN1[*:1])[*:2]; dNMeF = CN[C@H](Cc1ccccc1)C(=O)O; dCha = N[C@H](CC1CCCCC1)C(=O)O

One may read the IC50 as the midpoint of a concentration-inhibition curve.

In one test the target is AVP-V1 sites (Rattus norvegicus, UniProt P30560). Nature of the test: [3H]AVP radioligand binding to male rat liver crude membrane preparation (AVP-V1 sites). Here is the method: (§1) Nonspecific binding (5-10% of the total binding) was determined using 10 μM unlabeled AVP, and the binding reaction was terminated by filtration as described above for the [^3 H]OT binding assay.
(§2) +Butlen, D; Guillon, G; Rajerison, RM; Jard, S; Sawyer, WH; Manning, M. 1978 Mol Pharmacol 14:1006.

Another test concerns the target T1, uterine OT receptors (Rattus norvegicus, UniProt P70536).
T1 construct: from tissue; host or cells: uterus of DES-treated rats, crude membranes
T1 sequence (P70536 1-388): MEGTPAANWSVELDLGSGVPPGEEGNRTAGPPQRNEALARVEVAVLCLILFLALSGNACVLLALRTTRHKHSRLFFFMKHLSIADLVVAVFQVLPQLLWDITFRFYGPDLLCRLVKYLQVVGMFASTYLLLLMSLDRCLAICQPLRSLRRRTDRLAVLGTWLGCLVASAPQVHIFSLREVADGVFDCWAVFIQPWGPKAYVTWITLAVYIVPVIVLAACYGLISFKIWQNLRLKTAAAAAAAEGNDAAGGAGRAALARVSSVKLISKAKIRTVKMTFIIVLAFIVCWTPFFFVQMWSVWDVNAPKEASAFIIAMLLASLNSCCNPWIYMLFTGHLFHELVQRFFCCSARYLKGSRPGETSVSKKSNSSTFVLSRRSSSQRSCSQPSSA
In words: [3H]OT radioligand binding to uterine OT receptors, crude membrane preparation. The protocol: The high affinity binding of [^3 H]OT ([tyrosyl, 3,5-[^3 H]OT; 30-60 Ci/mmol; New England Nuclear Boston, Mass.) to uterine OT receptors was based on an assay* using a crude membrane preparation of uteri taken from diethylstilbestrol dipropionate (DES)-treated (0.3 mg/kg, ip; 18-24) rats. Competition studies were conducted at equilibrium (60 min; 22° C.) using 1 nM [^3 H]OT in the following assay buffer: 50 mM Tris-HCl, 5 mM MgCl2, and 0.1% BSA, pH 7.4. Nonspecific binding (10% of the total binding) was determined using 1 μM unlabeled OT and the binding reaction was terminated by filtration through glass fiber filters using a cell harvester (model 7019, Skatron, Inc., Sterling, Va.).
*Fuchs, A-R; Fuchs, F; Soloff, MS. 1985 J. Clin. Endocrinol. Metab. 60:37.

A further test has as its target AVP-V2 sites (Rattus norvegicus, UniProt Q00788). Nature of the test: [3H]AVP radioligand binding to rat kidney medulla crude membrane preparation (AVP-V2 sites). Particulars: rat kidney medulla membranes; 2 nM [3H]AVP; 30 min at 30° C.; read-out: Receptor Binding Results IC50 (nM) [^3 H]-AVP-V2. Here is the method:
as §1, §2

Setting [1] is: male rat liver membranes, 1 nM [3H]AVP, 30 min at 30° C., read-out: Receptor Binding Results IC50 (nM) [^3 H]-AVP-V1.
[2] abbreviates: uteri of DES-treated rats, 1 nM [3H]OT, 60 min, 22° C., inhibits specific binding by 50%, read-out: Receptor Binding Results IC50 (nM) [3H]OT.

AVP-V1 sites, sequence (P30560 whole entry): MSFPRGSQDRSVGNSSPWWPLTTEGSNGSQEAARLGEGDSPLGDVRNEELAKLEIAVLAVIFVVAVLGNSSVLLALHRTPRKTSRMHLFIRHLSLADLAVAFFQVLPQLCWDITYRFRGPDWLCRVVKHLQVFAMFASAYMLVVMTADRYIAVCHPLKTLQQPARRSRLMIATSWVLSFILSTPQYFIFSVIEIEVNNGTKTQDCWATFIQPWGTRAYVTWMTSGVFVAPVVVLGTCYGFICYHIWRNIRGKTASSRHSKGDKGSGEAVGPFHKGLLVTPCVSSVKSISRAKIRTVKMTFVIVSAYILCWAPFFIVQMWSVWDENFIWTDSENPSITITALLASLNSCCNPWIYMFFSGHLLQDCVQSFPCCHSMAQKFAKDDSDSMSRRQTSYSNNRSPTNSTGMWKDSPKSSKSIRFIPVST
AVP-V2 sites, sequence (Q00788 whole entry): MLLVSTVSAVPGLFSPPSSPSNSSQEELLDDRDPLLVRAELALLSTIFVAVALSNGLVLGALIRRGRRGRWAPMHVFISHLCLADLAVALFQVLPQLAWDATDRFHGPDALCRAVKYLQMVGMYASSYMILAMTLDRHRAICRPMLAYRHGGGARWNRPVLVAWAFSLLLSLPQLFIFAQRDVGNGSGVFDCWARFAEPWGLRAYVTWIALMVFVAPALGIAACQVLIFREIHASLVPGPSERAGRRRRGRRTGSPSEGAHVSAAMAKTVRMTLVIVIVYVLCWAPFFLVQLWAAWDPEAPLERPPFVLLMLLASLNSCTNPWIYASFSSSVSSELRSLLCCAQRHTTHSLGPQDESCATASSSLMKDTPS

As for `CC[C@H](C)[C@@H]1NC(=O)[C@@H](CC2CCCCC2)NC(=O)[C@@H]2CCCN2C(=O)[C@@H](CC2CCCCC2)N(C)C(=O)[C@@H]2CCCNN2C(=O)[C@H]2CCCNN2C1=O` [Example 1, cyclo-[D-3-Cyclohexylalanyl-L-isoleucyl-D-hexahydro-3-pyridazinecarbonyl-L-hexahydro-3-pyridazinecarbonyl-3-cyclohexyl-N-methyl-D-alanyl-L-prolyl]] (cyclo(I[X1][X5][dNMeCha]P[dCha])), the concentration for half-maximal inhibition (IC50) on AVP-V1 sites (setting [1]) came to 2400 nM; on uterine OT receptors (setting [2]), 725 nM; at AVP-V2 sites it was 14800 nM.
Take `CC[C@H](C)[C@@H]1NC(=O)[C@@H](CC2CCCCC2)NC(=O)[C@@H]2CCCN2C(=O)[C@@H](CC2CCCCC2)N(C)C(=O)[C@@H]2CCC=NN2C(=O)[C@H]2CCC=NN2C1=O` [Example 2, cyclo-[D-3-Cyclohexylalanyl-L-isoleucyl-D-2,3,4,5-tetrahydro-3-pyidazinecarbonyl-L-2,3,4,5-tetrahydro-3-pyridazinecarbonyl-3-cyclohexyl-N-methyl-D-alanyl-L-prolyl]] (cyclo(I[dPiz(1,6-dehydro)][Piz(1,6-dehydro)][dNMeCha]P[dCha])): on uterine OT receptors (setting [2]), the 50% inhibitory concentration (IC50) amounted to 94 nM.
In the case of `CC[C@H](C)[C@@H]1NC(=O)[C@@H](Cc2ccccc2)NC(=O)[C@@H]2CCCN2C(=O)[C@@H](Cc2ccccc2)N(C)C(=O)[C@@H]2CCC(=O)NN2C(=O)[C@H]2CCC=NN2C1=O` [Example 3, cyclo-[D-Phenylalanyl-L-isoleucyl-D-2,3,4,5-tetrahydro-3-pyridazinecarbonyl-L-hexahydro-6-oxo-3-pyridazinecarbonyl-N-methyl-D-phenylalanyl-L-prolyl]] (cyclo(I[dPiz(1,6-dehydro)][X10][dNMeF]P[dF])), the figures for the IC50 at AVP-V1 sites (setting [1]), at uterine OT receptors (setting [2]) and at AVP-V2 sites were 4700 nM, 20 nM and 17000 nM, respectively.
As for `CC[C@H](C)[C@@H]1NC(=O)[C@@H](Cc2ccccc2)NC(=O)[C@@H]2CCCN2C(=O)[C@@H](Cc2ccccc2)N(C)C(=O)[C@@H]2CCC(=O)NN2C(=O)[C@H]2CCCNN2C1=O` [Example 4, cyclo-[D-Phenylalanyl-L-isoleucyl-D-hexahydro-3-pyridazinecarbonyl-L-hexahydro-6-oxo-3-pyridazinecarbonyl-N-methyl-D-phenylalanyl-L-prolyl]] (cyclo(I[X1][X10][dNMeF]P[dF])), the results for the IC50 at AVP-V1 sites (setting [1]), at uterine OT receptors and on AVP-V2 sites were 13900 nM, 217 nM and 18900 nM, respectively.
Regarding `CC[C@H](C)[C@@H]1NC(=O)[C@@H](Cc2ccccc2)NC(=O)[C@@H]2CCCN2C(=O)[C@@H](Cc2ccccc2)N(C)C(=O)[C@@H]2CCC(SC)=NN2C(=O)[C@H]2CCC=NN2C1=O` [Example 5, cyclo-[D-Phenylalanyl-L-isoleucyl-D-2,3,4,5-tetrahydro-3-pyidazinecarbonyl-L-2,3,4,5-tetrahydro-6-methylthio-3-pyridazinecarbonyl-N-methyl-D-phenylalanyl-L-prolyl]] (cyclo(I[dPiz(1,6-dehydro)][X7][dNMeF]P[dF])), the IC50 on AVP-V1 sites (setting [1]) worked out at 820 nM; at uterine OT receptors (setting [2]) it was 27 nM; at AVP-V2 sites, 1020 nM.
Compound `CC[C@H](C)[C@@H]1NC(=O)[C@@H](Cc2ccccc2)NC(=O)[C@@H]2CCCN2C(=O)[C@@H](Cc2ccccc2)N(C)C(=O)[C@@H]2CCCN(C)N2C(=O)[C@H]2CCCN(C)N2C1=O` [Example 6, cyclo-[D-Phenylalanyl-L-isoleucyl-D-hexahydro-1-methyl-3-pyridazinecarbonyl-L-hexahydro-1-methyl-3-pyridazinecarbonyl-N-methyl-D-phenylalanyl-L-prolyl]] (cyclo(I[X15][X16][dNMeF]P[dF])) came in with an IC50 on uterine OT receptors of 6250 nM.
Take `CC[C@H](C)[C@@H]1NC[C@@H](Cc2ccccc2)NC(=O)[C@@H]2CCCN2C(=O)[C@@H](Cc2ccccc2)N(C)C(=O)[C@@H]2CCC=NN2C(=O)[C@H]2CCC=NN2C1=O` [Example 7, cyclo-[N-(2-Amino-3-phenylpropyl)-L-isoleucyl-D-2,3,4,5-tetrahydro-3-pyridazinecarbonyl-L-2,3,4,5-tetrahydro-3-pyridazinecarbonyl-N-methyl-D-phenylalanyl-L-prolyl]]: the values for the IC50 at AVP-V1 sites (setting [1]), at uterine OT receptors (setting [2]) and at AVP-V2 sites were over 30000 nM, 30000 nM and over 30000 nM, respectively.
For `CC[C@H](C)[C@@H]1NC(=O)[C@@H](Cc2ccccc2)NC(=O)[C@@H]2CCCN2C(=O)[C@@H](Cc2ccccc2)N(C)C(=O)[C@@H]2C=CC=NN2C(=O)[C@H]2CCC=NN2C1=O` [Example 8, cyclo-[D-Phenylalanyl-L-isoleucyl-D-2,3,4,5-tetrahydro-3-pyridazinecarbonyl-L-2,3-dihydro-3-pyridazine-carbonyl-N-methyl-D-phenylalanyl-L-prolyl]] (cyclo(I[dPiz(1,6-dehydro)][X9][dNMeF]P[dF])), the results for the IC50 at AVP-V1 sites (setting [1]), at uterine OT receptors (setting [2]) and at AVP-V2 sites were 1410 nM, 20 nM and 1350 nM, respectively.
`CC[C@H](C)[C@@H]1NC(=O)[C@@H](Cc2ccccc2)NC(=O)[C@@H]2CCCN2C(=O)[C@@H](Cc2ccccc2)N(C)C(=O)[C@@H]2CCC(SCC(=O)OC(C)(C)C)=NN2C(=O)[C@H]2CCC=NN2C1=O` [Example 9, cyclo-[D-Phenylalanyl-L-isoleucyl-D-2,3,4,5-tetrahydro-3-pyridazinecarbonyl-6-[[2-(1,1-dimethylethoxy)-2-oxoethyl]thio]-L-2,3,4,5-tetrahydro-3-pyridazine-carbonyl-N-methyl-D-phenylalanyl-L-prolyl]] (cyclo(I[dPiz(1,6-dehydro)][X11][dNMeF]P[dF])): the values for the 50% inhibitory concentration (IC50) on AVP-V1 sites, at uterine OT receptors (setting [2]) and at AVP-V2 sites were 10000 nM, 564 nM and 10000 nM, respectively.
With `CC[C@H](C)[C@@H]1NC(=S)[C@@H](Cc2ccccc2)NC(=O)[C@@H]2CCCN2C(=O)[C@@H](Cc2ccccc2)N(C)C(=O)[C@@H]2CCC=NN2C(=O)[C@H]2CCC=NN2C1=O` [Example 10, cyclo-[D-Thiophenylalanyl-L-isoleucyl-D-2,3,4,5-tetrahydro-3-pyridazinecarbonyl-L-2,3,4,5-tetrahydro-3-pyridazinecarbonyl-N-methyl-D-phenylalanyl-L-prolyl]] (cyclo(P[X13][dPiz(1,6-dehydro)][Piz(1,6-dehydro)][dNMeF])), the IC50 at AVP-V1 sites (setting [1]) stood at 300 nM; on uterine OT receptors (setting [2]), 1 nM; on AVP-V2 sites it was 270 nM.
As for `CC[C@H](C)[C@@H]1NC(=S)[C@@H](Cc2ccccc2)NC(=S)[C@@H]2CCCN2C(=O)[C@@H](Cc2ccccc2)N(C)C(=O)[C@@H]2CCC=NN2C(=O)[C@H]2CCC=NN2C1=O` [Example 11, cyclo-[D-Thiophenylalanyl-L-isoleucyl-D-2,3,4,5-tetrahydro-3-pyridazinecarbonyl-L-2,3,4,5-tetrahydro-3-pyridazinecarbonyl-N-methyl-D-phenylalanyl-L-thioprolyl]], the IC50 was 200 nM on AVP-V1 sites (setting [1]), 4.9 nM at uterine OT receptors (setting [2]) and 430 nM at AVP-V2 sites.
Regarding `C=CCSC1=N[C@@H]([C@@H](C)CC)C(=O)N2N=CCC[C@@H]2C(=O)N2N=CCC[C@H]2C(=O)N(C)[C@H](Cc2ccccc2)C(=O)N2CCC[C@H]2C(=O)N[C@@H]1Cc1ccccc1` [Example 12, cyclo-[(R)-N-(2-amino-3-phenyl-1-(2-propenylthio)-propylidene)-L-isoleucyl-D-2,3,4,5-tetrahydro-3-pyridazinecarbonyl-L-2,3,4,5-tetrahydro-3-pyridazine-carbonyl-N-methyl-D-phenylalanyl-L-prolyl]] (cyclo(P[X12][dPiz(1,6-dehydro)][Piz(1,6-dehydro)][dNMeF])), the half-maximal inhibitory concentration (IC50) is over 10000 nM at AVP-V1 sites (setting [1]), 710 nM on uterine OT receptors (setting [2]) and over 10000 nM at AVP-V2 sites.
